According to US7060822B1, “2-pyrazolin-5-ones” (Abbott GmbH & Co. KG, priority 1999, dated 2006):

Structure (SMILES) | melting point
Cc1[nH]c(C=C2C(=O)NN=C2c2cnccn2)c(C)c1CN1CCOCC1 [Example 128, 4-[(3,5-dimethyl-4-morpholinomethylpyrrol-2-yl)methylene]-3-pyrazinyl-2-pyrazolin-5-one] | 274 to 277 °C
Cc1cc(C)c(C=C2C(=O)NN=C2c2cccs2)[nH]1 [Example 129, 4-[(3,5-dimethylpyrrol-2-yl)methylene]-3-(2-thienyl)-2-pyrazolin-5-one] | 235 to 237 °C
CCOC(=O)c1c[nH]c(C=C2C(=O)NN=C2C2CC2)c1 [Example 130, 3-Cyclopropyl-4-[(4-ethoxycarbonylpyrrol-2-yl)methylene]-2-pyrazolin-5-one] | 192 to 194 °C
Cc1[nH]c(C=C2C(=O)NN=C2C2CC2)c(C)c1CNC(=O)C(F)(F)F [Example 131, 3-Cyclopropyl-4-[(3,5-dimethyl-4-trifluoroacetamidomethylpyrrol-2-yl)methylene]-2-pyrazolin-5-one] | 278 to 280 °C
Cc1[nH]c(C=C2C(=O)NN=C2C2CC2)c(C)c1CN [Example 132, 3-Cyclopropyl-4-[(4-aminomethyl-3,5-dimethylpyrrol-2-yl)methylene]-2-pyrazolin-5-one] | 217 to 219 °C
Cc1cc(C)c(C=C2C(=O)NN=C2c2nc3ccccc3s2)[nH]1 [Example 133, 3-(Benzothiazol-2-yl)-4-[(3,5-dimethylpyrrol-2-yl)methylene]-2-pyrazolin-5-one] | 295 to 297 °C
Cc1[nH]c(C=C2C(=O)NN=C2c2nc3ccccc3s2)c(C)c1CN1CCOCC1 [Example 134, 3-(Benzothiazol-2-yl)-4-[(3,5-dimethyl-4-morpholinomethylpyrrol-2-yl)methylene]-2-pyrazolin-5-one] | 285 °C (dec.)
CCc1c(C)[nH]c(C=C2C(=O)NN=C2c2cnccn2)c1C [Example 135, 4-[(3,5-Dimethyl-4-ethylpyrrol-2-yl)methylene]-3-pyrazinyl-2-pyrazolin-5-one] | 264 to 267 °C
CCOC(=O)c1c[nH]c(C=C2C(=O)NN=C2c2cnccn2)c1 [Example 136, 4-[(4-Ethoxycarbonylpyrrol-2-yl)methylene]-3-pyrazinyl-2-pyrazolin-5-one] | 155 to 157 °C
O=C1NN=C(c2cnccn2)C1=Cc1cc(C(=O)O)c[nH]1 [Example 137, 4-[(4-Carboxypyrrol-2-yl)methylene]-3-pyrazinyl-2-pyrazolin-5-one] | 230 to 232 °C
Cc1[nH]c(C=C2C(=O)NN=C2c2cnccn2)c(C)c1CNC(=O)C(F)(F)F [Example 139, 4-[(3,5-Dimethyl-4-trifluoroacetamidomethylpyrrol-2-yl)methylene]-3-pyrazinyl-2-pyrazolin-5-one] | 302 to 305 °C
CCOC(=O)c1c[nH]c(C=C2C(=O)NN=C2C2CC2)c1-c1ccccc1 [Example 140, 3-Cyclopropyl-4-[(4-ethoxycarbonyl-3-phenylpyrrol-2-yl)methylene]-2-pyrazolin-5-one] | 218 to 220 °C
Cc1[nH]c(C=C2C(=O)NN=C2c2ccco2)c(C)c1CN(C)C [Example 142, 4-[(3,5-Dimethyl-4-dimethylaminomethylpyrrol-2-yl)methylene]-3-(2-furyl)-2-pyrazolin-5-one] | 209 to 211 °C
Cc1[nH]c(C=C2C(=O)NN=C2c2cccs2)c(C)c1CN(C)C [Example 143, 4-[(3,5-Dimethyl-4-dimethylaminomethylpyrrol-2-yl)methylene]-3-(2-thienyl)-2-pyrazolin-5-one] | 208 to 210 °C
Cc1[nH]c(C=C2C(=O)NN=C2c2cccnc2)c(C)c1CN(C)C [Example 144, 4-[(3,5-Dimethyl-4-dimethylaminomethylpyrrol-2-yl)methylene]-3-(3-pyridyl)-2-pyrazolin-5-one] | 220 to 224 °C
CCOC(=O)c1c(C)[nH]c(C=C2C(=O)NN=C2c2ccccc2)c1C [Example 145, 4-[(3,5-Dimethyl-4-ethoxycarbonylpyrrol-2-yl)methylene]-3-phenyl-2-pyrazolin-5-one] | 216 to 217 °C
CCc1c(C)[nH]c(C=C2C(=O)NN=C2c2ccccc2)c1C [Example 146, 4-[(3,5-Dimethyl-4-ethylpyrrol-2-yl)methylene]-3-phenyl-2-pyrazolin-5-one] | 274 to 275 °C
CCOC(=O)c1c[nH]c(C=C2C(=O)NN=C2OCC)c1C(=O)OCC [Example 147, 4-[(3,4-Di(ethoxycarbonyl)pyrrol-2-yl)methylene]-3-ethoxy-2-pyrazolin-5-one] | 132 to 134 °C
CCOC(=O)c1c[nH]c(C=C2C(=O)NN=C2OCC)c1 [Example 148, 3-Ethoxy-4-[(4-ethoxycarbonylpyrrol-2-yl)methylene]-2-pyrazolin-5-one] | 212 to 216 °C
CCOC(=O)c1c(C)[nH]c(C=C2C(=O)NN=C2CCc2ccccn2)c1C [Example 149, 4-[(3,5-Dimethyl-4-ethoxycarbonylpyrrol-2-yl)methylene]-3-(2-pyridylethyl)-2-pyrazolin-5-one] | 180 to 182 °C

Structure (SMILES) | melting point
CCOC(=O)c1c(C)[nH]c(C=C2C(=O)NN=C2C(C)Cc2ccccc2)c1C (stereo not shown) [Example 150, 4-[(3,5-Dimethyl-4-ethoxycarbonylpyrrol-2-yl)methylene]-3-(1-methyl-2-phenylethyl)-2-pyrazolin-5-one] | 168 to 170 °C
CCOC1=NNC(=O)C1=Cc1[nH]c(C)c(C(=O)O)c1C [Example 151, 4-[(4-Carboxy-3,5-dimethylpyrrol-2-yl)methylene]-3-ethoxy-2-pyrazolin-5-one] | 310 to 312 °C
CCOC1=NNC(=O)C1=Cc1ccc([N+](=O)[O-])[nH]1 [Example 152, 3-Ethoxy-4-[(5-nitropyrrol-2-yl)methylene]-2-pyrazolin-5-one] | 208 to 210 °C
CCOC1=NNC(=O)C1=Cc1cc([N+](=O)[O-])c[nH]1 [Example 153, 3-Ethoxy-4-[(4-nitropyrrol-2-yl)methylene]-2-pyrazolin-5-one] | 287 to 289 °C
CCOC1=NNC(=O)C1=Cc1cc(C(=O)O)c[nH]1 [Example 154, 4-[(4-Carboxypyrrol-2-yl)methylene]-3-ethoxy-2-pyrazolin-5-one] | 290 to 293 °C
CCOC1=NNC(=O)C1=Cc1[nH]c(C)c(C(=O)NCCN(C)C)c1C [Example 155, 4-{[3,5-Dimethyl-4-(2-dimethylaminoethylaminocarbonyl)pyrrol-2-yl)methylene}-3-ethoxy-2-pyrazolin-5-one] | 158 to 160 °C
CCOC1=NNC(=O)C1=Cc1[nH]c(Cl)c(CC(=O)OC)c1C(=O)OC [Example 156, 4-[(5-Chloro-3-methoxycarbonyl-4-methoxycarbonylmethylpyrrol-2-yl)methylene]-3-ethoxy-2-pyrazolin-5-one] | 225 to 227 °C
CCOC1=NNC(=O)C1=Cc1[nH]cc(C)c1CCC(=O)O [Example 157, 4-{[3-(2-Carboxyethyl)-4-methylpyrrol-2-yl]methylene}-3-ethoxy-2-pyrazolin-5-one] | 255 to 257 °C
CCOC(=O)c1c(C)[nH]c(C=C2C(=O)NN=C2OCC)c1C [Example 158, 4-[(3,5-Dimethyl-4-ethoxycarbonylpyrrol-2-yl)methylene]-3-ethoxy-2-pyrazolin-5-one] | 232 to 234 °C
CCOC(=O)c1c(C)[nH]c(C=C2C(=O)NN=C2C(F)(F)F)c1C [Example 160, 4-[(3,5-Dimethyl-4-ethoxycarbonylpyrrol-2-yl)methylene]-3-trifluoromethyl-2-pyrazolin-5-one] | 252 to 254 °C
CCOC(=O)c1c(C)[nH]c(C=C2C(=O)NN=C2c2ccno2)c1C [Example 161, 4-[(3,5-Dimethyl-4-ethoxycarbonylpyrrol-2-yl)methylene]-3-(5-isoxazolyl)-2-pyrazolin-5-one] | 255 to 257 °C
CCOC(=O)c1c(C)[nH]c(C=C2C(=O)NN=C2c2cccc(N)c2)c1C [Example 162, 3-(3-Aminophenyl)-4-[(3,5-Dimethyl-4-ethoxycarbonylpyrrol-2-yl)methylene]-2-pyrazolin-5-one] | 214 to 216 °C
CCOC(=O)c1c[nH]c(C=C2C(=O)NN=C2c2cnccn2)c1-c1ccccc1 [Example 164, 4-[(4-Ethoxycarbonyl-3-phenylpyrrol-2-yl)methylene]-3-pyrazinyl-2-pyrazolin-5-one] | 255 to 257 °C
CCN(CC)Cc1c(C)[nH]c(C=C2C(=O)NN=C2c2cnccn2)c1C [Example 166, 4-[(4-Diethylaminomethyl-3,5-dimethylpyrrol-2-yl)methylene]-3-pyrazinyl-2-pyrazolin-5-one] | 242 to 244 °C
Cc1[nH]c(C=C2C(=O)NN=C2c2cnccn2)c(C)c1CN1CCCCC1 [Example 167, 4-[(3,5-Dimethyl-4-piperidinomethylpyrrol-2-yl)methylene]-3-pyrazinyl-2-pyrazolin-5-one] | 240 to 242 °C
Cc1[nH]c(C=C2C(=O)NN=C2c2ccno2)c(C)c1CN1CCCCC1 [Example 168, 4-[(3,5-Dimethyl-4-piperidinomethylpyrrol-2-yl)methylene]-3-(5-isoxazolyl)-2-pyrazolin-5-one] | 215 to 217 °C
Cc1[nH]c(C=C2C(=O)NN=C2c2ccno2)c(C)c1CN(C)C [Example 169, 4-[(3,5-Dimethyl-4-dimethylaminomethylpyrrol-2-yl)methylene]-3-(5-isoxazolyl)-2-pyrazolin-5-one] | 161 to 163 °C
Cc1[nH]c(C=C2C(=O)NN=C2c2cnccn2)cc1CN(C)C [Example 170, 4-[(5-Methyl-4-dimethylaminomethylpyrrol-2-yl)methylene]-3-pyrazinyl-2-pyrazolin-5-one] | 193 to 195 °C
Cc1[nH]c(C=C2C(=O)NN=C2C2CC2)c(C)c1CN(C)C.O=C(O)/C=C\C(=O)O [Example 174, 3-Cyclopropyl-4-[(3,5-dimethyl-4-dimethylaminomethylpyrrol-2-yl)methylene]-2-pyrazolin-5-one maleate] | 199 to 201 °C
Cc1[nH]c(C=C2C(=O)NN=C2c2cnccn2)c(C)c1C(=O)CCCl [Example 175, 4-{[4-(3-Chloropropionyl)-3,5-dimethylpyrrol-2-yl]methylene}-3-pyrazinyl-2-pyrazolin-5-one] | 213 °C (dec.)
